Read-outs that look alike come from different tables or passages of the source.
Columns and labels:
B-16 malignant melanoma = B-16 malignant melanoma in C57BL/6 mice, tumor growth after intraperitoneal injection; type: in vivo
Method: The compounds were tested by intraperitoneal injections of suspensions of the compounds in an aqueous solution of polyvinyl pyrrolidone.
Mice with malignant melanomas were injected with 20 mg or 40 mg diflubenzuron in suspension or with the suspension medium (blank).
Finally compound 2) was given in doses of 20 mg each on days 0, 1 and 2.
Animals with growing tumors were treated with 100 mg of diflubenzuron alone (suspended in an aqueous solution of polyvinylpyrrolidone) or in combination with a metabolic inhibitor or a metabolic inducer according to the schedule given in Table XI.

melanoma B-16 cells = assay: Malignant melanoma B-16 cells in vitro, cell count by Coulter Counter; type: cell-based; settings: Mus musculus; for activity at 200 µg/mL / activity at 300 µg/mL / activity at 50 µg/mL: B16, 48 h; for activity at 200 µg/mL: 200 ug/ml; for activity at 500 µg/mL / activity at 5000 µg/mL: B16, 20 hours incubation, cells counted at 48 hours; for activity at 500 µg/mL: read-out: Percentage of controll cell growth when tested in an amount of 5 x 10^2 µg/ml; for activity at 5000 µg/mL: read-out: Percentage of controll cell growth when tested in an amount of 5 x 10^3 µg/ml; for activity at 300 µg/mL: 300 ug/ml; for activity at 50 µg/mL: 50 ug/ml
Method: Cells of malignant melanomas B-16 grow as a monolayer. The doubling time of this type of cells in a cell--culture is 12 to 16 hours. For this experiment 6 multi-well tissue culture plates having a flat bottom with a surface area of 6 cm^2 appeared to be suitable and have been used.
On day 0 a quantity of melanoma B-16 cells were brought on the cell-culture plates.
The test compounds were sonicated and then incubated without cells for 3 hours at 37°C.
Then the compound to be tested was administered to the plates with melanoma B-16 cells in the desired quantity (each test was done in triplicate). Thereafter the plates were incubated in a C02-incubator for 20 hours at 37°C. Then the incubation was stopped by removing the culture medium containing the test compound, the cells were washed twice, and fresh culture medium was added.
48 Hours after starting the incubation step the number of cells on each plate was measured by means of a microcell Coulter Counter. The results so obtained have been expressed as "percentage of controll cell growth".
In the above experiment the compounds to be tested have been used in the form of a suspension. Since it is not quite clear how much of the active compounds is dissolved, the above results cannot be compared very well.
Therefore a number of compounds has been dissolved in ethanol.

[1] = 10 mg each on days 0, 1, 2, 3 and 4
[2] = 20 mg each on days 0, 1, 2, 3 and 4
[3] = dissolved in ethanol, read-out: Percentage of controll cell growth (solution)
[4] = suspension, read-out: Percentage of controll cell growth (suspension)
[5] = 100 mg total, 20 mg each on day 0, 1, 2, 3 and 4

SMILES: O=C(NC(=O)c1c(F)cccc1F)Nc1ccc(C2CCCCC2)cc1 [Compound 13, l-(2,6-difluorobenzoyl)-3-(4-cyclohexylphenyl)urea]
- Mean tumor Mass Day 1 (B-16 malignant melanoma; [1]): 205

SMILES: N#Cc1ccc(NC(=O)NC(=O)c2c(F)cccc2F)cc1 [Compound 10, l-(2,6-difluorobenzoyl)-3-(4-cyanophenyl)urea]
- Mean tumor Mass Day 1 (B-16 malignant melanoma; [2]): 183

SMILES: O=C(NC(=O)c1c(F)cccc1F)Nc1cc(Cl)c(Oc2ncc(C(F)(F)F)cc2Cl)c(Cl)c1 [Compound 2, 1-(2,6-difluorobenzoyl)-3-[3,5-dichloro-4-(3-chloro-5--trifluoromethyl-2-pyridyloxy)phenyl]urea]
- Mean tumor Mass Day 1 (B-16 malignant melanoma; 20 mg each on days 0, 1 and 2): 191
- activity at 200 µg/mL (melanoma B-16 cells; [3]): 72%
- activity at 200 µg/mL (melanoma B-16 cells; [4]): 114%

SMILES: O=C(NC(=O)c1c(Cl)cccc1Cl)Nc1ccc(C(F)(F)F)cc1 [Compound 18, 1-(2,6-dichlorobenzoyl)-3-(4-trifluoromethylphenyl)urea]
- Mean tumor Mass Day 1 (B-16 malignant melanoma; [1]): 314

SMILES: O=C(NC(=O)c1ccccc1Cl)Nc1ccc(OC(F)(F)F)cc1O [Compound 9, 1-(2-chlorobenzoyl)-3-(2-hydroxy-4-trifluoromethoxyphenyl)urea]
- activity at 500 µg/mL (melanoma B-16 cells; suspension): 100%
- activity at 5000 µg/mL (melanoma B-16 cells; suspension): 70%

SMILES: O=C(NC(=O)c1c(F)cccc1F)Nc1ccc(OC(F)(F)C(F)C(F)(F)F)cc1 (stereo not shown) [Compound 11]
- Mean tumor Mass Day 1 (B-16 malignant melanoma; [2]): 193

SMILES: O=C(NC(=O)c1c(F)cccc1F)Nc1ccc(Oc2ccc(Cl)cc2)c(Cl)c1 [Compound 3, 1-(2,6-difluorobenzoyl)-3-[3-chloro-4-(4-chlorophenoxy)phenyl]urea]
- Mean tumor Mass Day 1 (B-16 malignant melanoma; [2]): 127
- activity at 500 µg/mL (melanoma B-16 cells; suspension): 33%
- activity at 5000 µg/mL (melanoma B-16 cells; suspension): 8%

SMILES: O=C(NC(=O)c1c(F)cccc1F)Nc1ccc(Cl)c(O)c1 [Compound 8, 1-(2,6-difluorobenzoyl)-3-(4-chloro-3-hydroxyphenyl)urea]
- % change in tumor mass day 1 (B-16 malignant melanoma; [5]): 39.5 (12) %
- % change in tumor mass day 2 (B-16 malignant melanoma; [5]): 52.4 (12) %
- % change in tumor mass day 3 (B-16 malignant melanoma; [5]): 91.2 (12) %
- % change in tumor mass day 4 (B-16 malignant melanoma; [5]): 149 (12) %
- % change in tumor mass day 5 (B-16 malignant melanoma; [5]): 223 (12) %
- % change in tumor mass on day 11 (B-16 malignant melanoma; [5]): 930 (12) %
- antitumor effect compared with parent compound diflubenzuron (in words) (B-16 malignant melanoma; [5]): not active at all
- activity at 300 µg/mL (melanoma B-16 cells; [3]): 0%
- activity at 300 µg/mL (melanoma B-16 cells; [4]): 63%
- activity at 500 µg/mL (melanoma B-16 cells; suspension): 51%
- activity at 5000 µg/mL (melanoma B-16 cells; suspension): 53%

SMILES: O=C(NC(=O)c1ccccc1Cl)Nc1ccc(C(F)(F)F)cc1O [Compound 21, 1-(2-chlorobenzoyl)-3-(2-hydroxy-4-trifluoromethylphenyl)urea]
- activity at 300 µg/mL (melanoma B-16 cells; [3]): 43%
- activity at 300 µg/mL (melanoma B-16 cells; [4]): 50%
- activity at 500 µg/mL (melanoma B-16 cells; suspension): 101%
- activity at 5000 µg/mL (melanoma B-16 cells; suspension): 71%

SMILES: O=C(NC(=O)c1c(F)cccc1F)Nc1ccc(Cl)c(Cl)c1 [Compound 15, 1-(2,6-difluorobenzoyl)-3-(3,4-dichlorophenyl)urea]
- Mean tumor Mass Day 1 (B-16 malignant melanoma; [2]): 151

SMILES: O=C(NC(=O)c1c(F)cccc1F)Nc1ccc(C(F)(F)F)cc1O [Compound 20, 1-(2,6-difluorobenzoyl)-3-(2-hydroxy-4-trifluoromethylphenyl)urea]
- activity at 500 µg/mL (melanoma B-16 cells; suspension): 91%
- activity at 5000 µg/mL (melanoma B-16 cells; suspension): 81%

SMILES: O=C(NC(=O)c1c(F)cccc1F)Nc1ccc(Cl)cc1O [Compound 7]
- % change in tumor mass day 1 (B-16 malignant melanoma; [5]): -23.4 (12) %
- % change in tumor mass day 2 (B-16 malignant melanoma; [5]): -17.4 (12) %
- % change in tumor mass day 3 (B-16 malignant melanoma; [5]): 25.1 (12) %
- % change in tumor mass day 4 (B-16 malignant melanoma; [5]): 74.7 (10) %
- % change in tumor mass day 5 (B-16 malignant melanoma; [5]): 127 (10) %
- % change in tumor mass on day 11 (B-16 malignant melanoma; [5]): 699 (10) %
- antitumor effect compared with parent compound diflubenzuron (in words) (B-16 malignant melanoma; [5]): more effective
- activity at 50 µg/mL (melanoma B-16 cells; [3]): 39%
- activity at 50 µg/mL (melanoma B-16 cells; [4]): 103%
- activity at 300 µg/mL (melanoma B-16 cells; [3]): 0%
- activity at 300 µg/mL (melanoma B-16 cells; [4]): 103%

SMILES: O=C(NC(=O)c1ccccc1)Nc1ccc(Cl)cc1 [Compound 19, 1-benzoyl-3-(4-chlorophenyl)urea]
- Mean tumor Mass Day 1 (B-16 malignant melanoma; [2]): 159

SMILES: Cc1ccc2cc3c(ccc4ccccc43)c3c2c1CC3 [3-methylcholanthrene, 3-Methylcholanthrene, reference compound]
- % change in tumor mass day 1 (B-16 malignant melanoma; mouse, in vivo): 122 (6) %
- % change in tumor mass day 2 (B-16 malignant melanoma; mouse, in vivo): 223 (6) %
- % change in tumor mass day 3 (B-16 malignant melanoma; mouse, in vivo): 364 (6) %
- % change in tumor mass day 4 (B-16 malignant melanoma; mouse, in vivo): 417 (6) %
- % change in tumor mass day 5 (B-16 malignant melanoma; mouse, in vivo): 363 (6) %

SMILES: O=C(NC(=O)c1c(F)cccc1F)Nc1ccc(O)cc1 [Compound 12, 1-(2,6-difluorobenzoyl)-3-(4 :aydroxyphenyl)urea]
- Mean tumor Mass Day 1 (B-16 malignant melanoma; [2]): 148

SMILES: O=C(NC(=O)c1ccccc1Cl)Nc1ccc(OC(F)(F)F)cc1 [Compound 6, l-(2-chlorobenzoyl)-3-(4-trifluoromethoxyphenyl)urea]
- Mean tumor Mass Day 1 (B-16 malignant melanoma; [2]): 229
- activity at 300 µg/mL (melanoma B-16 cells; [3]): 95%
- activity at 300 µg/mL (melanoma B-16 cells; [4]): 88%

SMILES: O=C(NC(=O)c1c(Cl)cccc1Cl)Nc1ccc(Cl)cc1 [Compound 17, 1-(2,6-dichlorobenzoyl)-3-(4-chlorophenyl)urea]
- Mean tumor Mass Day 1 (B-16 malignant melanoma; [1]): 347

SMILES: O=C(NC(=O)c1ccccc1Cl)Nc1ccc(Cl)cc1 [Compound 5, 1-(2-chlorobenzoyl)-3-(4-chlorophenyl)urea]
- Mean tumor Mass Day 1 (B-16 malignant melanoma; [2]): 198
- activity at 500 µg/mL (melanoma B-16 cells; suspension): 98%
- activity at 5000 µg/mL (melanoma B-16 cells; suspension): 86%
